According to patent US9034862B2, “Compositions and methods for the treatment of cancer” (priority 2011, dated 2015):
Like-named read-outs stand apart in the source and are kept apart here.

How the values were obtained:
[1] = tested on: human lung carcinoma A549; assay: MTT assay, A549; type: cell-based
Experimental: (§1) Solutions of the platinum compounds were freshly prepared in sterile PBS before use and their concentrations quantitated by atomic absorption spectroscopy. Cells were seeded on a 96-well plate (1200 cells per well for cancer cells and 1800 cells per well for the normal lung fibroblasts) in 100 μL RPMI or DMEM media, and incubated for 24 h. […] The cells were then treated with 20 μL of 3-(4,5-dimethylthiazol-2-yl)-2,5-diphenyltetrazolium bromide (MTT) (5 mg/mL in PBS) and incubated for 4 h. The medium was removed, 100 μL of DMSO was added to the cells, and the absorbance of the purple formazan was recorded at 560 nm using a BioTek Synergy HT multi-detection microplate plate reader. Each condition was performed in triplicate and three independent experiments were carried out for each cell line.
(§2) Human prostate carcinoma (PC3) and human cervix carcinoma (HeLa) cells were obtained from the ATCC. The human lung carcinoma cell line A549 was kindly provided by David E. Root (Whitehead Institute for Biomedical Research). Cells were incubated at 37° C. in 5% CO2 and grown in RPMI (PC3) or DMEM (A549 and HeLa) medium supplemented with 10% fetal bovine serum and 1% penicillin/streptomycin. Cells were passaged every 3 to 4 days and restarted from the frozen stock upon reaching passage number 20.
(§3) Solutions of the platinum agents were freshly prepared in sterile PBS before use and the platinum content was quantitated by AAS. Cells were seeded on 96 well plates (1200 cells per well) in 100 μL RPMI or DMEM media\ and incubated for 24 hours. […] The cells were then treated with 20 μL of 3-(4,5-dimethylthiazol-2-yl)-2,5-diphenyltetrazolium bromide (MTT) (5 mg/mL in PBS) and incubated for 4 h. The medium was removed, 100 μL of DMSO were added to the cells, and the absorbance of the purple formazan was recorded at 570 nm using a BioTek Synergy HT multi-detection microplate plate reader. For each cell line, three independent experiments were carried out in triplicate.

[2] = tested on: human cervix carcinoma HeLa cells; assay: MTT assay, HeLa; type: cell-based
Experimental: as §1, §2, §3

[3] = tested on: human breast carcinoma MCF7; assay: MTT assay, MCF7; type: cell-based
Experimental: Human colon carcinoma HT29, human breast carcinoma MCF7, human bone sarcoma U2OS, human prostate carcinoma PC3, and human cervix carcinoma HeLa cells were obtained from the ATCC. A2780/CP70 cisplatin-resistant human ovarian cancer cells were kindly provided by Dr. Stephen B. Howell (Moores UCSD Cancer Center) and the human lung carcinoma cell lines A549 and normal lung fibroblast MRC5 by David E. Root (Whitehead Institute for Biomedical Research). Cells were incubated at 37° C. in 5% CO2 and grown in RPMI (HT29, A2780/CP70, and PC3) or DMEM (A549, MRC5, HeLa, MCF7, and U2OS) medium supplemented with 10% fetal bovine serum and 1% penicillin/streptomycin. Cells were passed every 3 to 4 days and restarted from a frozen stock upon reaching pass number 20.
Solutions of the platinum compounds were freshly prepared in sterile PBS before use and their concentrations quantitated by atomic absorption spectroscopy. […] The cells were then treated with 20 μL of 3-(4,5-dimethylthiazol-2-yl)-2,5-diphenyltetrazolium bromide (MTT) (5 mg/mL in PBS) and incubated for 4 h. The medium was removed, 100 μL of DMSO was added to the cells, and the absorbance of the purple formazan was recorded at 560 nm using a BioTek Synergy HT multi-detection microplate plate reader. Each condition was performed in triplicate and three independent experiments were carried out for each cell line.

NTera2 = assay: MTT assay, NTera2; type: cell-based, human; settings: Table 3, NTera2 Testis, 72-h incubation
Experimental: as §1

[4] = tested on: Gaussia luciferase expression in human cancer cells; settings: for Transcription (normalized against unplatinated control): NoPt = 100, cell line not stated
Experimental: Vector Construction and Preparation. […] Preparation of Platinated Insertion Strand. […] The suspension was centrifuged. To a solution of 0.2 mM 16-mer oligonucleotide 5′-[…]*[…] The reaction mixture was incubated in the dark at 37° C. overnight. The reaction was stopped when the solution was frozen. […] After purification, the platinated DNA solution was dialyzed against H2O and lyophilized. […] The insertion strand was further analyzed for nucleotide composition by nuclease S1 digestion to confirm the platination site following a protocol published previously (Table 13) (e.g., see J Am Chem Soc 2007, 129, 6370-6371). The platinated and unplatinated DNA strands (40 μM) were phosphorylated by T4 PNK (0.67 U/μL) at 37° C. for 3 h, followed by a phenol/chloroform/isoamyl alcohol extraction to remove the enzyme. The phosphorylated DNA strands were ethanol precipitated and stored in −80° C. at a concentration of 100 pmol/μL.
Briefly, a 600 μg quantity of pGLuc8temG plasmid was digested with 30 U Nt.BbvCI at 37° C. for 1 h. The reaction mixture was heated at 80° C. for 20 min to deactivate the enzyme, followed by a phenol/chloroform/isoamyl alcohol extraction to remove the enzyme. The mixture was dialyzed against H2O overnight at 4° C. The plasmid was further digested with 30 U Nt.BspQI at 50° C. for 1 h, and the enzyme was heat-deactivated and removed by a phenol/chloroform/isoamyl alcohol extraction. The nicked plasmid was mixed with 1,000 equiv of complementary DNA strand 5′-[…] (SEQ ID NO: 2) in a buffer of 10 mM Tris-HCl, 2 mM MgCl2, 0.4 M NaCl, pH 7.4, heated at 80° C. for 5 min, and subsequently cooled at 4° C. for 5 min for 10 cycles. […] A 120 μg quantity of the gapped plasmid was annealed with 100 equiv of the insertion strand in a buffer of 10 mM Tris-HCl, 2 mM MgCl2, 0.4 M NaCl, pH 7.4 from 90° C. to 4° C. at −1° C./min in a thermocycler. The platinated plasmid was dialyzed against H2O at 4° C. overnight and further purified by treatment with 30 U BsmBI at 55° C. for 1 h. The closed-circular form of plasmid was purified and concentrated by isopycnic centrifugation, followed by n-butanol extraction and ethanol precipitation. The plasmids were quantitated by a Quant-iT™ PicoGreen® dsDNA Kit from Invitrogen (Carlsbad, Calif.), and stored in −80° C. in TE buffer (10 mM Tris-HCl, 2 mM EDTA, pH 7.4).
Transfection of platinated plasmids into mammalian cells was carried out as reported previously (e.g., see ChemBioChem 2011, 12, 1115-1123). A549 and HeLa cells were plated at 2,000 cells per well in 96-well plates. NTera-2 and HT29 cells were plated at 4,000 cells per well in 96-well plates. MCF7 and U2OS cells were plated at 5,000 cells per well in 96-well plates. The cells were allowed to attach and grow for 48 h, and then washed with antibiotic-free culture media right before transfection. Transient transfection of the cells was carried out using Lipofectamine 2000. Briefly, 10 ng of site specifically platinated probes was included in each well. The experiments were performed in quadruplicate. The probes were diluted in OptiMEM, and Lipofectamine was diluted in OptiMEM. The two solutions were combined and incubated for 20 min. The transfection mixture was delivered into each well, and the cells were incubated for 2 h. The cells were washed with antibiotic-free culture media to remove the transfection mixture. A 100 μL volume of fresh, antibiotic-free media was added into each well to start the transcription assay. […]

IC50 ([1]; Table 3, A549 Lung, 72-h incubation): 0.22 ± 0.01 µM
IC50 ([1]; Table 4, A549 human lung carcinoma, 72 h incubation): 0.17 ± 0.002 µM
IC50 ([1]; Table 5, A549, 72-h incubation): 0.22 ± 0.01 µM
IC50 ([1]; Table 11 (Example 3), A549 Lung, 72 h): 0.22 ± 0.006 µM
IC50 ([1]; Table 14, A549, MTT assay): 0.17 ± 0.01 µM
IC50 ([2]; Table 3, HeLa Cervix, 72-h incubation): 0.3 ± 0.02 µM
IC50 ([2]; Table 5, HeLa, 72-h incubation): 0.3 ± 0.02 µM
IC50 ([2]; Table 11 (Example 3), HeLa Cervix, 72 h): 0.21 ± 0.035 µM
IC50 ([2]; Table 14, HeLa, MTT assay): 0.37 ± 0.04 µM
IC50 ([3]; Table 3, MCF7 Breast, 72-h incubation): 0.94 ± 0.09 µM
IC50 ([3]; Table 14, MCF7, MTT assay): 1.14 ± 0.02 µM
Substance: cis-[Pt(NH3)2(phenanthridine)Cl]NO3 [phenanthriplatin]
IC50 (NTera2): 0.035 ± 0.002 µM
Transcription (normalized against unplatinated control) ([4]; 16 hours): 26
Transcription (normalized against unplatinated control) ([4]; 24 hours): 32
Transcription (normalized against unplatinated control) ([4]; 32 hours): 36
Transcription (normalized against unplatinated control) ([4]; 44 hours): 41
transcription inhibition in live mammalian cancer cells ([4]; site-specific cis-[Pt(NH3)2(phen)]2+-dG lesion): strong transcription inhibitor
